# Reference: publication PMC2726771 (The Journal of neuroscience : the official journal of the …, 2009)
# Assays:
# Format in all cases: cell-based
# α3T115Cβ2 nAChR = α3T115Cβ2 nAChR (Rattus norvegicus, UniProt P04757+P12390, T142C); settings: Hill coefficient
# α3β2T193C nAChR = α3β2T193C nAChR (Rattus norvegicus, UniProt P04757+P12390, T219C); settings: Hill coefficient
# α3β2 wt nAChR = α3β2 wt nAChR (Rattus norvegicus, UniProt P04757+P12390); settings: Hill coefficient
# α3β2S192C nAChR = α3β2S192C nAChR (Rattus norvegicus, UniProt P04757+P12390, S218C); settings: Hill coefficient
# α3S161Cβ2 nAChR = α3S161Cβ2 nAChR (Rattus norvegicus, UniProt P04757+P12390, S188C); settings: Hill coefficient
# α3β2T150C nAChR = α3β2T150C nAChR (Rattus norvegicus, UniProt P04757+P12390, T176C)
# α3A106Cβ2 nAChR = α3A106Cβ2 nAChR (Rattus norvegicus, UniProt P04757+P12390, A133C); settings: Hill coefficient
# α3β2S148C nAChR = α3β2S148C nAChR (Rattus norvegicus, UniProt P04757+P12390, S174C); settings: Hill coefficient
# Sequence of α3β2S148C nAChR (P04757 26-499): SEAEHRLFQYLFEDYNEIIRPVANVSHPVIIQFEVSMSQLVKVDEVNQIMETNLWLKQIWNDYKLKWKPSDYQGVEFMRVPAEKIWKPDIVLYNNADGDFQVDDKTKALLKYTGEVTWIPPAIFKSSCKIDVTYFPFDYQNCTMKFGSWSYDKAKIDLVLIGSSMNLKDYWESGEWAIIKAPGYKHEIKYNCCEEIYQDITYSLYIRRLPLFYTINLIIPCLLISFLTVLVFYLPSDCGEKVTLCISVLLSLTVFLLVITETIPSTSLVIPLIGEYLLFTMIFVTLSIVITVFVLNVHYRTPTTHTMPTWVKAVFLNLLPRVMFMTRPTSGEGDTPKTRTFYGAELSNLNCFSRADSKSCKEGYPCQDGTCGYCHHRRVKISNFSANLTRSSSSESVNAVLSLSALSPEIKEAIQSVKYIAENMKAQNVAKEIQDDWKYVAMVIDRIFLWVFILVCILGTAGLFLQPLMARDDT
# Sequence of α3β2S148C nAChR (P12390 25-500 S174C): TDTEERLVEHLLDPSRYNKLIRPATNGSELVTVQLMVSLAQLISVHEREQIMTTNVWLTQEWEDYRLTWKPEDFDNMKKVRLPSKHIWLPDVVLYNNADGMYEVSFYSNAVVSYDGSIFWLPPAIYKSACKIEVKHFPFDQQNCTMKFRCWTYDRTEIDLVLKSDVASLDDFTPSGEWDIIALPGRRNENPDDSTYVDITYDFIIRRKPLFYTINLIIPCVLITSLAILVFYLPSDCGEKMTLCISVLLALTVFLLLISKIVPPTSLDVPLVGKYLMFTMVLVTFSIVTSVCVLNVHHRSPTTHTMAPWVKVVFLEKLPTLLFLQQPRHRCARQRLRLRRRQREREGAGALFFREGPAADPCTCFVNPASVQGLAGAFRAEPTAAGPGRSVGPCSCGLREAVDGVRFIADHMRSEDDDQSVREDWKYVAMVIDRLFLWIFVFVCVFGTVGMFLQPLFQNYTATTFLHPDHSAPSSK
# Sequence of α3β2T150C nAChR (P04757 26-499): as the sequence (P04757 26-499) above
# Sequence of α3β2T150C nAChR (P12390 25-500 T176C): as the sequence (P12390 25-500 S174C) above, with C150S, T152C counted along it
# Sequence of α3T115Cβ2 nAChR (P04757 26-499 T142C): as the sequence (P04757 26-499) above, with T117C counted along it
# Sequence of α3T115Cβ2 nAChR (P12390 25-500): as the sequence (P12390 25-500 S174C) above, with C150S counted along it
# Sequence of α3A106Cβ2 nAChR (P04757 26-499 A133C): as the sequence (P04757 26-499) above, with A108C counted along it
# Sequence of α3A106Cβ2 nAChR (P12390 25-500): as the sequence (P12390 25-500 S174C) above, with C150S counted along it
# Sequence of α3β2 wt nAChR (P04757 26-499): as the sequence (P04757 26-499) above
# Sequence of α3β2 wt nAChR (P12390 25-500): as the sequence (P12390 25-500 S174C) above, with C150S counted along it
# Sequence of α3β2T193C nAChR (P04757 26-499): as the sequence (P04757 26-499) above
# Sequence of α3β2T193C nAChR (P12390 25-500 T219C): as the sequence (P12390 25-500 S174C) above, with C150S, T195C counted along it
# Sequence of α3β2S192C nAChR (P04757 26-499): as the sequence (P04757 26-499) above
# Sequence of α3β2S192C nAChR (P12390 25-500 S218C): as the sequence (P12390 25-500 S174C) above, with C150S, S194C counted along it
# Sequence of α3S161Cβ2 nAChR (P04757 26-499 S188C): as the sequence (P04757 26-499) above, with S163C counted along it
# Sequence of α3S161Cβ2 nAChR (P12390 25-500, stated change not applied): as the sequence (P12390 25-500 S174C) above, with C150S counted along it
ACh Response nH (α3T115Cβ2 nAChR),ACh Response nH (α3β2T193C nAChR),ACh Response nH (α3β2 wt nAChR),ACh Response nH (α3β2S192C nAChR),ACh Response nH (α3S161Cβ2 nAChR),"ACh nH, +Mor data set, pre-treatment (α3β2T150C nAChR; ACh + 10 μM Mor)","ACh nH, +Mor data set, post-treatment (α3β2T150C nAChR; ACh + 10 μM Mor, after 100 μM MTSET + 200 μM ACh)","ACh Emax, +Mor data set, pre-treatment (α3β2T150C nAChR; ACh + 10 μM Mor, normalized to ACh response at 1000 μM)","ACh Response nH (α3β2T150C nAChR; Hill coefficient, pre-treatment in Fig. 4)",ACh nH post-treatment (α3β2T150C nAChR; after 100 μM MTSET + 200 μM ACh),"ACh Emax post-treatment (α3β2T150C nAChR; after 100 μM MTSET + 200 μM ACh, normalized to ACh response at 1000 μM)",ACh Emax pre-treatment (α3β2T150C nAChR; normalized to ACh response at 1000 μM),ACh Response nH (α3A106Cβ2 nAChR),ACh Response nH (α3β2S148C nAChR),SMILES,"reduction of maximum Mor-evoked current (efficacy) (α3β2T150C nAChR; after 100 μM reagent, four 30-sec doses)"
0.96 ± 0.09,0.74 ± 0.07,0.82 ± 0.06,0.57 ± 0.05,0.77 ± 0.07,1.13 ± 0.24,0.98 ± 0.02,1.33 ± 0.05,0.84 ± 0.06,0.79 ± 0.11,0.26 ± 0.01,1.00,0.64 ± 0.04,0.79 ± 0.08,CC(=O)OCC[N+](C)(C)C [ACh],
,,,,,,,,,,,,,,C[N+](C)(C)CCOC(=O)CBr [BrACh],very little effect
